Experimental data reported in US10561736B1, “Apoptosis inhibitor formulations for prevention of hearing loss” (Spiral Therapeutics, Inc., priority 2019, dated 2020).
“Also recorded” adds a separate entry of the source.

What was measured:
[1] = tested on: HEI-OC1 cells; assay: release of mitochondrial Cytc in HEI-OC1 cells with CisPt (flow cytometry); type: cell-based; conditions: cellular model of CisPt-induced apoptosis
Description: Flow cytometry was also used to characterize the effect of LPT99 in the release of mitochondrial Cytc in HEI-OC1 cells in vitro with CisPt prevention.
The effect of LPT99 on proliferation of non-apoptotic cells was studied. A549 cells were cultured in the presence of LPT99 for up to 6 days; the cell number was monitored by flow cytometry, and doubling time was calculated.

[2] = tested on: HEI-OC1 cells; conditions: cellular model of CisPt-induced apoptosis; IEB Symposium abstracts 2016; cited from earlier work
[3] = target: apoptosome complex composed by recombinant Apaf-1, Cytc, deoxyadenosine triphosphate (dATP), and caspase 9 (Homo sapiens, UniProt O14727); assay: inhibition of apoptosome complex formation, recombinant proteins; type: biochemical; conditions: mean ± SD, read-out: apoptosome inhibition (measured as inhibition of caspase 3 activation)
apoptosome complex composed by recombinant Apaf-1, Cytc, deoxyadenosine triphosphate (dATP), and caspase 9, sequence (O14727 whole entry, one chain of several): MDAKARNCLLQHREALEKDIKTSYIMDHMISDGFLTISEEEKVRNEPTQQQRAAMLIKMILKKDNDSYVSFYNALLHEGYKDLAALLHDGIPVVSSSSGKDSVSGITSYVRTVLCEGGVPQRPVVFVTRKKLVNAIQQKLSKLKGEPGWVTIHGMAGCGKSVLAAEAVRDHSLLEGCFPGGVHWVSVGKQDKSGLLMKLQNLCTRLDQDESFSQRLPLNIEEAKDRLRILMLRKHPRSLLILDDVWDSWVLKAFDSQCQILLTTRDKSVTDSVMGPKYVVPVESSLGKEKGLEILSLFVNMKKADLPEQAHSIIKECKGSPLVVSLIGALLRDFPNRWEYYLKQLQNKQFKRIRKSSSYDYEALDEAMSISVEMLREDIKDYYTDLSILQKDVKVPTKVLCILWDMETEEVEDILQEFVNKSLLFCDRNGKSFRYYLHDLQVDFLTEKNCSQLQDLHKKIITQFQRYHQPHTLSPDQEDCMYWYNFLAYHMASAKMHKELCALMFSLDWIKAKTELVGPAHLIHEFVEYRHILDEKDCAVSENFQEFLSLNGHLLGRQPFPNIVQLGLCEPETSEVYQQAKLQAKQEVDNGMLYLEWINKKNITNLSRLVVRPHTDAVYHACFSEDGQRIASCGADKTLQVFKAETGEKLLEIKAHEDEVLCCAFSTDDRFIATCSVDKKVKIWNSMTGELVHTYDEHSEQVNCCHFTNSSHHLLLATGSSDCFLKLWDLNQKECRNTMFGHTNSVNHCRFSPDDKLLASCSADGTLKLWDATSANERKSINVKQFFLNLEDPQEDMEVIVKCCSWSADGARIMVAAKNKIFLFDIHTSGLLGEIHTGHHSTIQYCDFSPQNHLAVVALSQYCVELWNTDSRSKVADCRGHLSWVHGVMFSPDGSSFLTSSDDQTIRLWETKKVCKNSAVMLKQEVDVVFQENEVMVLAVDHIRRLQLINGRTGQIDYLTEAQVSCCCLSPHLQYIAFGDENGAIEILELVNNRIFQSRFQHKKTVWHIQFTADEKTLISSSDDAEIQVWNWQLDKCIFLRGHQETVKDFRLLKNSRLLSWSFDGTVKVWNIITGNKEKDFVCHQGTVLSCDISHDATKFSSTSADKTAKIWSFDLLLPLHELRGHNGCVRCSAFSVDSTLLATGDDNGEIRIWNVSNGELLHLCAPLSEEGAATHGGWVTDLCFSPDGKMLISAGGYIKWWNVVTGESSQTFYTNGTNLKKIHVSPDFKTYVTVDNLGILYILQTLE
Description: The specificity of LPT99 was tested in vitro on Apaf-1, caspase 3, and caspase 9 (proteins from the apoptotic cascade), and a broad panel of potential pharmacological targets.
LPT99 inhibited the formation of the apoptosome complex composed by recombinant Apaf-1, Cytc, deoxyadenosine triphosphate (dATP), and caspase 9. This activity was measured as inhibition of caspase 3 activation. […] To evaluate the specificity of the inhibition, an assay of caspase 3 and 9 activation was set up with recombinant proteins. The inhibitions of caspase 3 and 9 were 7.6±14.7 and 5.3±3.5, respectively, for LPT99.

[4] = plasma concentrations after IT administration of LPT99-CD; type: in vivo, rat
Description: In a study conducted in female Wistar rats, plasma concentrations of LPT99 were evaluated at 1 hour and 2, 4, 7, and 14 days after IT administration of a single 50 μL dose of 50, 100, or 200 μM LPT99 formulated in a 5% HPβ-cyclodextrin (“CD”) vehicle (LPT99-CD).

[5] = tested on: caspase 3; assay: CisPt-induced caspase 3 activation in HEI-OC1 cells; type: cell-based
Description: (§1) To identify off-target activities of LPT99, its selectivity against a panel of receptors (44 G-protein-coupled receptors [GPCR] and 4 non-GPCR), 4 ion channels, and 3 transporters were analyzed. The cell line, HEI-OC1 (house ear institute organ of Corti 1), which expresses several characteristic markers of the organ of Corti sensory cells (Kalinec, et al., Audiol. Neurootol. 2003, 8(4), 177-89), was used to evaluate the efficacy of LPT99 in preventing apoptosis due to […]. Cells were pre-incubated with LPT99, followed by […] for 24 hours.

[6] = tested on: ion channels, including hERG potassium channels; assay: effects on ion channels in CHO and HEK 293 cells; type: cell-based
Text: Torsadogenic refers to the development of torsade de Pointes (TdP) arrythimias.

[7] = tested on: panel of receptors (44 GPCR and 4 non-GPCR), 4 ion channels, and 3 transporters; assay: off-target selectivity panel; type: binding; conditions: 10 μM
Description: as §1
For 14 of the tested targets-adenosine receptor 3 (A3); cholecystokinin: cholecystokinin receptor 1 (CCK1); melatonin receptor (MT1); neurokinin (NK2 and NK3); opioid (kOP and mOP); serotonin receptors (5HT-1A, 5HT-2A, 5HT-2B and 5HT-7); and vasopressin (ViA; Na+channel site 2 and C1-GABA-gated channel)—the LPT99 affinity was >50%. At 1 μM, the inhibition of 13 of these targets was <50%, indicating a very low affinity with LPT99.

COc1ccc2[nH]cc(CCNC(=O)CC3C(=O)N(CCc4ccc(Cl)cc4Cl)CC(=O)N3CCc3cccs3)c2c1 (stereo not shown) [LPT99, 2-(4-(2,4-dichlorophenethyl)-3,6-dioxo-1-(2-(thiophen-2-yl)ethyl)piperazin-2-yl)-N-(2-(5-methoxy-1H-indol-3-yl)ethyl)acetamide]
release of Cytc from mitochondria [1]: decreased release of Cytc from mitochondria
cell viability [2]: improved cell viability
inhibition at 10 µM [3]: 78.9%
plasma concentration at quantitation limit (3.2 nM) as share of administered dose ([4]; 50 μM dose): 0.006%
plasma concentration at quantitation limit (3.2 nM) as share of administered dose ([4]; 100 μM dose): 0.003%
plasma concentration at quantitation limit (3.2 nM) as share of administered dose ([4]; 200 μM dose): 0.0016%
caspase 3 activation in the cellular model ([5]; cellular model of CisPt-induced apoptosis): reduced caspase-3 activation
IC50 ([5]; read-out: 50% inhibitory concentration (IC50) for caspase 3, HEI-OC1 cells pre-incubated with LPT99, then CisPt for 24 hours): 5.2 ± 1.6 µM
torsadogenic / cardiotoxic risk [6]: low torsadogenic risk; also recorded: low cardiotoxic risk
in vitro inhibition, 41 of the tested targets [7]: < 50%
